Broadly, the EC50 is the concentration giving half of the maximal effect.

A value given as a limit tells only on which side of the number the result lay.

For data set [1], the target named is T1, recombinant human GABABR1a2 (Homo sapiens, UniProt Q9UBS5).
T1 construct: expressed in transfected cells; host or cells: HEK cells
The experiment in a line: cAMP assay for determining GABAB receptor agonist activity. The data set is classed as cell-based. Particulars: cells expressing recombinant human GABABR1a2; read-out: cAMP EC50. How it is done: The following procedure was used to determine the level of intracellular cAMP. Recombinant HEK cells expressing the GABAB R1a2 receptor were used in the experiments. cAMP levels were measured using a cAMP XS^+ HitHunter™ Chemiluminescence Assay Kit (90-0075-02, GE Healthcare Biosciences Corp.). Cells were seeded overnight at 5,000 cells per well, in black, clear bottom 96-well plates. The following morning, cells were washed twice with 100 μL PBS per well. Forskolin was weighed out and dissolved in DMSO to a final concentration 100 mM. One-hundred (100) μM forskolin solutions were prepared in PBS with and without test compound at 1-times final concentration. Thirty (30) μL of the test solutions were added to the wells and incubated for 1 h at room temperature. The cAMP concentration was determined according to the protocol described in the cAMP assay kit, maintaining the plate at room temperature and in the dark. Two hours after the final kit reagent was added, the plate bottom was covered with black tape, and the plate read using a 1450 MicroBeta Trilux microplate scintillation and luminescence counter (PerkinElmer, Waltham, Mass.). Each well was read for 6 seconds. The untransformed data was then analyzed.
(Changes in cAMP serve as a functional read-out for many G protein-coupled receptors.)

Data set [2] deals with T1, recombinant human GABABR1a2. The experiment in a line: Ca2+ assay for determining GABAB receptor agonist activity. To be noted: cells expressing recombinant human GABABR1a2. The data set is classed as cell-based. How it is done: The following procedure was used to determine the GABAB receptor agonist activity of a compound as reflected by activation of Ca^2+ signaling. HEK TREx cells expressing GABABR1a2 under tetracycline induction control, and Gqi chimeric protein (expressed constitutively), allowing GABABR coupling through the Ca^2+ signaling pathway were used in the experiments.
Cells were seeded in media containing tetracycline overnight at 100,000 cells/well, in black, clear-bottom, 96-well plates. The following morning, cells were washed twice with 100 μL HBSS buffer per well. Fluorescent Ca^2+ indicator dye was prepared using the materials and procedure described in the F362056 Fluo-4 NW Calcium Assay Kit (Invitrogen, Carlsbad, Calif.). Ten (10) mL of kit buffer and 100 μl of kit Probenecid were added to individual kit dye vials, and rolled back and forth several times to dissolve the dye. Cells were then loaded into the dye solution at 50 μL per well. The cells and dye were incubated for 30 min at 37° C., and then incubated for an additional 30 min at room temperature in the dark. Test compounds are dissolved in HBSS buffer at twice final concentration. Duplicate wells were used for each unique condition. Solution containing the test compound was added to the wells using a FLEXStation II (Molecular Devices, Sunnyvale, Calif.). Using the instrument in kinetic mode in which each well was read every 2 sec over a total collection time of 50 sec fluorescence was measured using an excitation wavelength 494 nm and a detection wavelength of 516 nm. A normalized fluorescence value for each well was calculated using the following procedure. The difference in fluorescence at 35 sec (usually representing maximal response) and at 15 sec (a time point prior to addition of test compounds) was calculated, divided by the fluorescence at 15 sec, and the result multiplied by 100. The final value represented the percent increase in fluorescence relative to the fluorescence at 15 sec. Data was analyzed using standard procedures.

The nature of data set [3]: Bioavailability following oral administration to rats. To be noted: rat, in vivo. On the procedure:
Rats were obtained commercially and were pre-cannulated in the jugular vein. Animals were conscious at the time of the experiment. All animals were fasted overnight and until 4 hours post-dosing of a compound.
Rat blood samples (0.3 mL/sample) were collected from all animals prior to dosing and at different time-points up to 24 h post-dose into tubes containing EDTA. Two aliquots (100 μL each) were quenched with 300 μL methanol and stored at −20° C. prior to analysis.
To prepare analysis standards, 90 μL of rat blood was quenched with 300 μL methanol followed by 10 μL of spiking standard and/or 20 μL of internal standard. The sample tubes were vortexed for at least 2 min and then centrifuged at 3400 rpm for 20 min. The supernatant was then transferred to an injection vial or plate for analysis by LC-MS-MS.
To prepare samples for analysis, 20 μL of internal standard was added to each quenched sample tube. The sample tubes were vortexed for at least 2 min and then centrifuged at 3400 rpm for 20 min. The supernatant was then transferred to an injection vial or plate for analysis by LC-MS-MS.
LC/MS/MS analysis was performed using an API 2000 or API 4000 mass spectrometer equipped with a Shimadzu and or Agilent HPLC system are used for determination concentration of compounds in rat blood. A Varian Polaris C18, 3μ 50×4.6 mm column was used. 0.1% Formic acid in water and acetonitrile were applied as the mobile phase. Runs were 4.0 min. […] L-4-Chlorophenylalanine was used as an internal standard at m/z 200.00/154.00.
Non-compartmental analysis was performed using WinNonlin software (v.3.1 Professional Version, Pharsight Corporation, Mountain View, Calif.) on individual animal profiles. […]
The oral bioavailability (F %) of a compound was determined by comparing the area under the compound concentration vs time curve (AUC) following oral administration of a prodrug of a GABAB ligand with the AUC of the compound concentration vs time curve following intravenous administration of the GABAB ligand on a dose normalized basis.

T1 sequence (Q9UBS5 15-961 limits assumed): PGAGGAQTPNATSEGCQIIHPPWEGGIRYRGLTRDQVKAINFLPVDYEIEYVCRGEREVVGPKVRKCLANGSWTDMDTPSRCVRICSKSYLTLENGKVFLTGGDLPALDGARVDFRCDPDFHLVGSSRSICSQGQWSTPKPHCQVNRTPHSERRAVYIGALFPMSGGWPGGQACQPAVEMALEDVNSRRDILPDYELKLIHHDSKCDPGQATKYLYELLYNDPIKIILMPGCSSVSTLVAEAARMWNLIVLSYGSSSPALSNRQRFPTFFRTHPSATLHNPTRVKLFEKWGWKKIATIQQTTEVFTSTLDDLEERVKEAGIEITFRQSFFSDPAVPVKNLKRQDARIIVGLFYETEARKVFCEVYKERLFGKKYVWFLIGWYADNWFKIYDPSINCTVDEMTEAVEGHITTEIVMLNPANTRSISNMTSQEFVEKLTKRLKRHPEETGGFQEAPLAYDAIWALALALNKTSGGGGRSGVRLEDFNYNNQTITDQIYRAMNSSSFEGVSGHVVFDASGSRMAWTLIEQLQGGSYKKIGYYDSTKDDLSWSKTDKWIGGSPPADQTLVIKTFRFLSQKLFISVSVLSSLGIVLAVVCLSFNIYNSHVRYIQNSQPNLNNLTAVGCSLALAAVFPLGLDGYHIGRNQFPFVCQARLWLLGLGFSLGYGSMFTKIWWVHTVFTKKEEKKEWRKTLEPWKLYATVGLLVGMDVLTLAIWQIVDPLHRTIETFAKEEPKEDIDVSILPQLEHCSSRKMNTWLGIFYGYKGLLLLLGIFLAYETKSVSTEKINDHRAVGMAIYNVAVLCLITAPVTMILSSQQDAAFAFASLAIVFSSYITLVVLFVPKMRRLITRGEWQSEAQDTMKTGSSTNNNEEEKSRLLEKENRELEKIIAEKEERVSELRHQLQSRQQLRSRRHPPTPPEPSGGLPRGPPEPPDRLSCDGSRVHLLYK
T1 sequence (O75899 42-941 partner): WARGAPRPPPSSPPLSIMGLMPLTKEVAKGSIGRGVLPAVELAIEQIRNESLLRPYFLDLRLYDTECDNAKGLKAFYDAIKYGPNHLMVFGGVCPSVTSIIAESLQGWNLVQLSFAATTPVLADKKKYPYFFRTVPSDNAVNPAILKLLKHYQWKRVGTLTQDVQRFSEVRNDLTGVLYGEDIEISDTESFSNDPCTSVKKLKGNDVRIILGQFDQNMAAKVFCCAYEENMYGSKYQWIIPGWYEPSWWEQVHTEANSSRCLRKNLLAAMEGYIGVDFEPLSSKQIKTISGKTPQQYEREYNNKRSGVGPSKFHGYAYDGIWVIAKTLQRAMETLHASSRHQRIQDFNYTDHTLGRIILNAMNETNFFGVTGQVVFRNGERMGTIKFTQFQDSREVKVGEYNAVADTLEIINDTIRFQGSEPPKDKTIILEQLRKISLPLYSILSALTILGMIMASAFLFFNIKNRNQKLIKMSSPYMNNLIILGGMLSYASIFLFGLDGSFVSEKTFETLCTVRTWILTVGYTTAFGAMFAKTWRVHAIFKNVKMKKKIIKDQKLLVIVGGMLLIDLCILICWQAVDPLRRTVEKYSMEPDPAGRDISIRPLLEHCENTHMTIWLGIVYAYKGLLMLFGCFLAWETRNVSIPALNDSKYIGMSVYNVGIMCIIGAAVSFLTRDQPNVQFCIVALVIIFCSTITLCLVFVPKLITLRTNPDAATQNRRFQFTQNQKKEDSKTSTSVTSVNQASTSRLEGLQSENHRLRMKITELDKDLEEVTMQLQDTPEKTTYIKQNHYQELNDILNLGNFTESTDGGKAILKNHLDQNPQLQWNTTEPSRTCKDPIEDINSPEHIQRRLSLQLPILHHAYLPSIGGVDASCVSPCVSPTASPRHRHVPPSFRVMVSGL

Regarding `Cl.NC[C@H](CC(=O)O)c1ccc(Cl)c(OCc2ccncc2)c1` [Example 68, (3R)-4-Amino-3-[4-chloro-3-(4-pyridylmethoxy)phenyl]butanoic acid hydrochloride], the EC50 in data set [1] was less than 0.1 µM; in data set [2], less than 0.7 µM. For the same molecule, the “oral bioavailability (F %)” value in data set [3] is “greater than 10%”.

For the origin of these results see patent US8344028B2, “Gamma-amino-butyric acid derivatives as GABAB receptor ligands” (XenoPort, Inc., priority 2009, dated 2013).
